Measured values from patent publication US20230286930A1, “N -SUBSTITUTED 4-(1,3-ARYLOXAZOLO-2-YL)PHENYL COMPOUNDS FOR THE TREATMENT AND PROPHYLAXIS OF HEPATITIS B VIRUS INFECTION” (Hoffmann-La Roche Inc., priority 2020, published 2023).

Columns and labels:
[1] = PHH natural infection assay, cytotoxicity (Cell Counting Kit-8); assay type: cell-based; conditions: human
Procedure: (§1) Detailed procedures regarding primary human hepatocyte (PHH) HBV natural infection assay are described as below. One tube of frozen PHH (10 million cells) is thawed in 37° C. water bath and then transferred to 20 mL of PHH thawing medium (Sigma, InVitroGRO HT Medium, Cat. S03319) with gently mixing. The cells were then centrifuged at […] for 5 min, the supernatant was discarded and the tube was refilled with 25 mL of PHH plating medium (Sigma, InVitroGRO CP Medium, Cat. S03317). The tube was shaken very gently to re-suspend all cells, and then 50 μL of cells were transferred to each well 384-well collagen I coated plate with appropriate liquid handling equipment, e.g. Integra VIAFLO384 or Agilent Bravo. The cells were then cultured for 24 hours in a cell incubator. For HBV infection, after PHH attachment on the culture plate, the plating medium was removed and replenished with PHH culture medium containing HBV virus. The PHH culture medium was prepared with Dulbecco's Modified Eagle Medium (DMEM)/F12 (1:1 in volume ratio) containing 10% fetal bovine serum (Gibco, Cat. 10099141), 5 ng/mL human epidermal growth factor (Gibco, Cat.PHG0311L), 20 ng/mL dexamethasone (Sigma, Cat.D4902-100 mg), 250 ng/mL human recombinant insulin (Gibco, Cat.41400045) and 100 U/mL penicillin. HBV virus at 200 genome equivalent (GE) per cell with 4% PEG8000 (Sigma, Cat.P1458) containing culture medium were added to the PHH culture medium for infection. The cells were then cultured for 24 hours in cell incubator. Then the cell culture supernatant was removed. The HBV-infected PHH were cultured with sandwich culture method with PHH culture medium containing 1% DMSO and 0.25 mg/mL matrix gel for 72 hours. The supernatant was then refreshed with PHH culture medium containing different concentrations of testing compounds for two times with 72-hour interval. At the end of treatment, the supernatant was collected for viral markers measurements, including HBsAg, HBeAg, HBV DNA and cytotoxicity. HBsAg and HBeAg were detected using alphalisa method using their specific antibodies. For HBV DNA detection, HBV DNA Quantitative Fluorescence Diagnostic Kit (Sansure Biotech Inc.) was used following the manufacture's protocol. Cytotoxicity was determined using Cell Counting Kit-8 (CCK8, Dojindo Molecular Technologies, Inc.).

HBeAg = assay: PHH natural infection assay, HBeAg (alphalisa); assay type: cell-based, HBV; conditions: Hepatitis B virus, read-out: HBeAg IC50
Procedure: as §1
(§2) The compounds of the present invention were tested for their capacity to inhibit HBsAg and HBeAg as described herein.

HBsAg = assay: PHH natural infection assay, HBsAg (alphalisa); assay type: cell-based, HBV; conditions: Hepatitis B virus, read-out: HBsAg IC50
Procedure: as §1, §2

SMILES: O=C(Nc1ccc(-c2nc3cccc(F)c3o2)cc1)C1C2COCC21 (stereo not drawn) [Example 33, N-[4-(7-fluoro-1,3-benzoxazol-2-yl)phenyl]-3-oxabicyclo[3.1.0]hexane-6-carboxamide]
- CC50 at 144 h [1]: > 100000 nM
- IC50 (HBeAg): 1090 nM
- IC50 (HBsAg): 1580 nM

SMILES: O=C(Nc1ccc(-c2nc3c(F)cccc3o2)cc1)C12CC(C1)C2 [Example 47, N-[4-(4-fluoro-1,3-benzoxazol-2-yl)phenyl]bicyclo[1.1.1]pentane-1-carboxamide]
- CC50 at 144 h [1]: > 100000 nM
- IC50 (HBeAg): 1200 nM
- IC50 (HBsAg): 1020 nM

SMILES: O=C(Nc1ccc(-c2nc3ccc(Cl)cc3o2)cc1)C1CCS(=O)(=O)C1 (stereo not drawn) [Example 10, N-[4-(6-chloro-1,3-benzoxazol-2-yl)phenyl]-1,1-dioxo-thiolane-3-carboxamide]
- CC50 at 144 h [1]: > 100000 nM
- IC50 (HBeAg): 4380 nM
- IC50 (HBsAg): 6460 nM

SMILES: O=C(Nc1ccc(-c2nc3cccc(F)c3o2)cc1)C12CC(F)(C1)C2 [Example 16, 3-fluoro-N-[4-(7-fluoro-1,3-benzoxazol-2-yl)phenyl]bicyclo[1.1.1]pentane-1-carboxamide]
- CC50 at 144 h [1]: > 100000 nM
- IC50 (HBeAg): 440 nM
- IC50 (HBsAg): 480 nM

SMILES: COc1ccc2nc(-c3ccc(NC(=O)C4CCOC4)cc3)oc2n1 (stereo not drawn) [Example 72, N-[4-(5-methoxyoxazolo[5,4-b]pyridin-2-yl)phenyl]tetrahydrofuran-3-carboxamide]
- CC50 at 144 h [1]: > 100000 nM
- IC50 (HBeAg): 2610 nM
- IC50 (HBsAg): 2220 nM

SMILES: CC(C)OC(=O)Nc1ccc(-c2nc3c(F)cccc3o2)cc1 [Example 60, isopropyl N-[4-(4-fluoro-1,3-benzoxazol-2-yl)phenyl]carbamate]
- CC50 at 144 h [1]: > 100000 nM
- IC50 (HBeAg): 3000 nM
- IC50 (HBsAg): 5040 nM

SMILES: O=C(Nc1ccc(-c2nc3ccc(Cl)cc3o2)cc1)C1CCOC1 (stereo not drawn) [Example 8, N-[4-(6-chloro-1,3-benzoxazol-2-yl)phenyl]tetrahydrofuran-3-carboxamide]
- CC50 at 144 h [1]: > 100000 nM
- IC50 (HBeAg): 820 nM
- IC50 (HBsAg): 920 nM

SMILES: Cc1coc(C(=O)Nc2ccc(-c3nc4c(F)cccc4o3)cc2)n1 [Example 43, N-[4-(4-fluoro-1,3-benzoxazol-2-yl)phenyl]-4-methyl-oxazole-2-carboxamide]
- CC50 at 144 h [1]: > 100000 nM
- IC50 (HBeAg): 1070 nM
- IC50 (HBsAg): 1090 nM

SMILES: CC(C)(C)C(=O)Nc1ccc(-c2nc3c(F)cccc3o2)cc1 [Example 53, N-[4-(4-fluoro-1,3-benzoxazol-2-yl)phenyl]-2,2-dimethyl-propanamide]
- CC50 at 144 h [1]: > 100000 nM
- IC50 (HBeAg): 1170 nM
- IC50 (HBsAg): 1430 nM

SMILES: Cc1coc(C(=O)Nc2ccc(-c3nc4ccc(F)c(F)c4o3)cc2)n1 [Example 79, N-[4-(6,7-difluoro-1,3-benzoxazol-2-yl)phenyl]-4-methyl-oxazole-2-carboxamide]
- CC50 at 144 h [1]: > 100000 nM
- IC50 (HBeAg): 1030 nM
- IC50 (HBsAg): 820 nM

SMILES: CC1(C(=O)Nc2ccc(-c3nc4cccnc4o3)cc2)COC1 [Example 65, 3-methyl-N-(4-oxazolo[5,4-b]pyridin-2-ylphenyl)oxetane-3-carboxamide]
- CC50 at 144 h [1]: > 100000 nM
- IC50 (HBeAg): 2200 nM
- IC50 (HBsAg): 2730 nM

SMILES: CC1(C(=O)Nc2ccc(-c3nc4c(F)cccc4o3)cc2)CC(=O)C1 [Example 56, N-[4-(4-fluoro-1,3-benzoxazol-2-yl)phenyl]-1-methyl-3-oxo-cyclobutanecarboxamide]
- CC50 at 144 h [1]: > 100000 nM
- IC50 (HBeAg): 4300 nM
- IC50 (HBsAg): 3390 nM

SMILES: CCOC(=O)Nc1ccc(-c2nc3c(F)cccc3o2)cc1 [Example 59, ethyl N-[4-(4-fluoro-1,3-benzoxazol-2-yl)phenyl]carbamate]
- CC50 at 144 h [1]: > 100000 nM
- IC50 (HBeAg): 1570 nM
- IC50 (HBsAg): 1640 nM

SMILES: CCCC(=O)Nc1ccc(-c2nc3ccc(Cl)cc3o2)cc1 [Example 9, N-[4-(6-chloro-1,3-benzoxazol-2-yl)phenyl]butanamide]
- CC50 at 144 h [1]: > 100000 nM
- IC50 (HBeAg): 1460 nM
- IC50 (HBsAg): 1190 nM

SMILES: O=C(Nc1ccc(-c2nc3cccc(F)c3o2)cc1)C1CCC1 [Example 25, N-[4-(7-fluoro-1,3-benzoxazol-2-yl)phenyl]cyclobutanecarboxamide]
- CC50 at 144 h [1]: > 100000 nM
- IC50 (HBeAg): 720 nM
- IC50 (HBsAg): 950 nM

SMILES: O=C(Nc1ccc(-c2nc3cccnc3o2)cc1)C1CCS(=O)(=O)C1 (stereo not drawn) [Example 63, N-(4-oxazolo[5,4-b]pyridin-2-ylphenyl)-1,1-dioxo-thiolane-3-carboxamide]
- CC50 at 144 h [1]: > 100000 nM
- IC50 (HBeAg): 4830 nM
- IC50 (HBsAg): 2530 nM

SMILES: O=C(Nc1ccc(-c2nc3cc(Cl)ccc3o2)cc1)C1CCOC1 (stereo not drawn) [Example 75, N-[4-(5-chloro-1,3-benzoxazol-2-yl)phenyl]tetrahydrofuran-3-carboxamide]
- CC50 at 144 h [1]: > 100000 nM
- IC50 (HBeAg): 1340 nM
- IC50 (HBsAg): 1100 nM

SMILES: O=C(Nc1ccc(-c2nc3cccc(F)c3o2)cc1)C12CC(C1)C2 [Example 14, N-[4-(7-fluoro-1,3-benzoxazol-2-yl)phenyl]bicyclo[1.1.1]pentane-1-carboxamide]
- CC50 at 144 h [1]: > 100000 nM
- IC50 (HBeAg): 400 nM
- IC50 (HBsAg): 330 nM

SMILES: Cc1nnc(C(=O)Nc2ccc(-c3nc4ccc(F)c(F)c4o3)cc2)o1 [Example 80, N-[4-(6,7-difluoro-1,3-benzoxazol-2-yl)phenyl]-5-methyl-1,3,4-oxadiazole-2-carboxamide]
- CC50 at 144 h [1]: > 100000 nM
- IC50 (HBeAg): 2110 nM
- IC50 (HBsAg): 1340 nM

SMILES: CC(C)(O)C(=O)Nc1ccc(-c2nc3c(F)cccc3o2)cc1 [Example 49, N-[4-(4-fluoro-1,3-benzoxazol-2-yl)phenyl]-2-hydroxy-2-methyl-propanamide]
- CC50 at 144 h [1]: > 100000 nM
- IC50 (HBeAg): 530 nM
- IC50 (HBsAg): 620 nM

SMILES: CC1(C(=O)Nc2ccc(-c3nc4cccc(F)c4o3)cc2)CC1 [Example 32, N-[4-(7-fluoro-1,3-benzoxazol-2-yl)phenyl]-1-methyl-cyclopropanecarboxamide]
- CC50 at 144 h [1]: > 100000 nM
- IC50 (HBeAg): 1160 nM
- IC50 (HBsAg): 1520 nM

SMILES: O=C(Nc1ccc(-c2nc3ccc(F)c(F)c3o2)cc1)C1CCOC1 (stereo not drawn) [Example 82, N-[4-(6,7-difluoro-1,3-benzoxazol-2-yl)phenyl]tetrahydrofuran-3-carboxamide]
- CC50 at 144 h [1]: > 100000 nM
- IC50 (HBeAg): 550 nM
- IC50 (HBsAg): 520 nM

SMILES: O=C(Nc1ccc(-c2nc3cc(Cl)ccc3o2)cc1)c1ncco1 [Example 73, N-[4-(5-chloro-1,3-benzoxazol-2-yl)phenyl]oxazole-2-carboxamide]
- CC50 at 144 h [1]: > 100000 nM
- IC50 (HBeAg): 2050 nM
- IC50 (HBsAg): 1780 nM

SMILES: O=C(Nc1ccc(-c2nc3c(F)cccc3o2)cc1)C1CS(=O)(=O)C1 [Example 57, N-[4-(4-fluoro-1,3-benzoxazol-2-yl)phenyl]-1,1-dioxo-thietane-3-carboxamide]
- CC50 at 144 h [1]: > 100000 nM
- IC50 (HBeAg): 9080 nM
- IC50 (HBsAg): 8190 nM

SMILES: O=C(Nc1ccc(-c2nc3c(F)cccc3o2)cc1)C1CCS(=O)(=O)C1 (stereo not drawn) [Example 50, N-[4-(4-fluoro-1,3-benzoxazol-2-yl)phenyl]-1,1-dioxo-thiolane-3-carboxamide]
- CC50 at 144 h [1]: > 100000 nM
- IC50 (HBeAg): 1510 nM
- IC50 (HBsAg): 1200 nM

SMILES: Cc1cnc(C(=O)Nc2ccc(-c3nc4c(F)cccc4o3)cc2)o1 [Example 41, N-[4-(4-fluoro-1,3-benzoxazol-2-yl)phenyl]-5-methyl-oxazole-2-carboxamide]
- CC50 at 144 h [1]: > 100000 nM
- IC50 (HBeAg): 520 nM
- IC50 (HBsAg): 420 nM

SMILES: O=C(Nc1ccc(-c2nc3cc(Cl)ccc3o2)cc1)c1ccccn1 [Example 74, N-[4-(5-chloro-1,3-benzoxazol-2-yl)phenyl]pyridine-2-carboxamide]
- CC50 at 144 h [1]: > 100000 nM
- IC50 (HBeAg): 5440 nM
- IC50 (HBsAg): 4100 nM

SMILES: CC(C)(O)C(=O)Nc1ccc(-c2nc3cccc(F)c3o2)cc1 [Example 13, N-[4-(7-fluoro-1,3-benzoxazol-2-yl)phenyl]-2-hydroxy-2-methyl-propanamide]
- CC50 at 144 h [1]: > 100000 nM
- IC50 (HBeAg): 190 nM
- IC50 (HBsAg): 260 nM

SMILES: O=C(Nc1ccc(-c2nc3cccc(F)c3o2)cc1)C1CCS(=O)(=O)C1 (stereo not drawn) [Example 17, N-[4-(7-fluoro-1,3-benzoxazol-2-yl)phenyl]-1,1-dioxo-thiolane-3-carboxamide]
- CC50 at 144 h [1]: > 100000 nM
- IC50 (HBeAg): 630 nM
- IC50 (HBsAg): 540 nM

SMILES: O=C(Nc1ccc(-c2nc3cc(F)ccc3o2)cc1)C1CCSCC1 [Example 7, N-[4-(5-fluoro-1,3-benzoxazol-2-yl)phenyl]tetrahydrothiopyran-4-carboxamide]
- CC50 at 144 h [1]: > 100000 nM
- IC50 (HBeAg): 5180 nM
- IC50 (HBsAg): 3860 nM

SMILES: O=C(Nc1ccc(-c2nc3cc(F)cc(F)c3o2)cc1)C1CCOC1 (stereo not drawn) [Example 70, N-[4-(5,7-difluoro-1,3-benzoxazol-2-yl)phenyl]tetrahydrofuran-3-carboxamide]
- CC50 at 144 h [1]: > 100000 nM
- IC50 (HBeAg): 2460 nM
- IC50 (HBsAg): 1750 nM
